Here are results for one molecule from patent publication US20210301306A1 (priority 2018, published 2021).

This assay deals with normally fed mice. Kind of assay: Feeding behavior in normally fed mice injected into the stomach wall with vector, then given CNO. Particulars: 1 mg/kg CNO, FIGS. 9A-9E. Format: in vivo. As for the experimental part: FIG. 3 depicts the response of normally fed […] mice injected into the stomach wall with retroAAV/rh10 expressing a DREADD (hD3q) which activates neurons in response to 1 mg/kg CNO. Animals injected with retroAAV/rh10 expressing the marker gene mCherry fed normally in response to CNO.

Take `C[N+]1([O-])CCN(C2=Nc3cc(Cl)ccc3Nc3ccccc32)CC1` [CNO, clozapine-N-oxide]: the “long term feeding behavior” value is reported as “long term stability of reduced feeding behavior”.
